According to patent publication US6747033B2, “Fungicidal triazolopyrimid-7-ylideneamines” (BASF Aktiengesellschaft, priority 2000, dated 2004):
Where two headings read alike, the source gives them in different places.

What was measured:
[1] = system: Pyricularia grisea f. sp. oryzae; format: in vivo; details: Rice Blast
Blumeria graminis = assay: In vivo fungicidal activity, Wheat powdery mildew (WPM); further: ranges in brackets are in %
Rhizoctonia solani = assay: In vitro fungicidal activity, Rice sheath blight (RHIZSO); format: cell-based; parameters: key: 0: None; 3: slight; 5: moderate; 7: severe; 9: complete; details: 3-7 days of incubation
Procedure: (§1) Test compounds are dissolved in acetone to give concentrations of 25, 10 and 1 ppm and are added to individual cell Walls (24-cell-well plates, Corning), which were previously filled with a suspension of ground plates, Corning), which were previously filled with a suspension of ground fungal mycelium in a chemically defined growth medium. After 3-7 days of incubation, inhibition of […] growth is recorded using the following scale: The data obtained are shown in Table II. [table]

Plasmopara viticola = assay: In vivo fungicidal activity, Grape downy mildew (GDM); further: ranges in brackets are in %
Venturia inaequalis = assay: In vivo fungicidal activity, Apple Scab (AS); further: ranges in brackets are in %
[2] = system: Pseudocercosporella herpotrichoides; assay: In vitro fungicidal activity, Cereal eye spot (PSDCHE); format: cell-based; parameters: key: 0: None; 3: slight; 5: moderate; 7: severe; 9: complete; details: 3-7 days of incubation
Procedure: as §1

Pythium ultimum = assay: In vitro fungicidal activity, Fruit rot (PYTHUL); format: cell-based; parameters: key: 0: None; 3: slight; 5: moderate; 7: severe; 9: complete; details: 3-7 days of incubation
Procedure: as §1

Alternara solani = assay: In vivo fungicidal activity, Tomato early blight (TEB); further: ranges in brackets are in %
Botrytis cinera = assay: In vivo fungicidal activity, Pepper Botrytis (PB); further: ranges in brackets are in %

| Compound | RB disease control rating ([1]; 12.5 ppm spray) | RB disease control rating ([1]; 50 ppm spray) | RB disease control rating ([1]; 200 ppm spray) | WPM disease control rating (Blumeria graminis; 12.5 ppm spray) | WPM disease control rating (Blumeria graminis; 50 ppm spray) | WPM disease control rating (Blumeria graminis; 200 ppm spray) | RHIZSO inhibition of mycelial growth rating (Rhizoctonia solani; 1 ppm) | RHIZSO inhibition of mycelial growth rating (Rhizoctonia solani; 10 ppm) | RHIZSO inhibition of mycelial growth rating (Rhizoctonia solani; 25 ppm) | GDM disease control rating (Plasmopara viticola; 12.5 ppm spray) | GDM disease control rating (Plasmopara viticola; 50 ppm spray) | GDM disease control rating (Plasmopara viticola; 200 ppm spray) | AS disease control rating (Venturia inaequalis; 12.5 ppm spray) | AS disease control rating (Venturia inaequalis; 50 ppm spray) | AS disease control rating (Venturia inaequalis; 200 ppm spray) | PSDCH inhibition of mycelial growth rating ([2]; 1 ppm) | PSDCH inhibition of mycelial growth rating ([2]; 10 ppm) | PSDCH inhibition of mycelial growth rating ([2]; 25 ppm) | PYTHU inhibition of mycelial growth rating (Pythium ultimum; 1 ppm) | PYTHU inhibition of mycelial growth rating (Pythium ultimum; 10 ppm) | further results |
| --- | --- | --- | --- | --- | --- | --- | --- | --- | --- | --- | --- | --- | --- | --- | --- | --- | --- | --- | --- | --- | --- |
| Cn1c(Cl)c(-c2c(F)cc(F)cc2F)c(=NCC(F)(F)F)n2ncnc12 [Example 17] | 0 (0) | 3 (30-44) | 4 (45-59) | 0 (0) | 2 (15-29) | 6 (75-89) | 7 | 7 | 7 | 0 (0) | 0 (0) | 5 (60-74) | 0 (0) | 2 (15-29) | 6 (75-89) | 0 | 1 | 3 | 0 | 5 | PYTHU inhibition of mycelial growth rating (Pythium ultimum; 25 ppm): 7; TEB disease control rating (Alternara solani; 12.5 ppm spray): 0 (0); TEB disease control rating (Alternara solani; 50 ppm spray): 0 (0); TEB disease control rating (Alternara solani; 200 ppm spray): 0 (0); PB disease control rating (Botrytis cinera; 12.5 ppm spray): 0 (0); PB disease control rating (Botrytis cinera; 50 ppm spray): 0 (0); PB disease control rating (Botrytis cinera; 200 ppm spray): 0 (0) |
| CC(N=c1c(-c2ccccc2Cl)c(Cl)nc2n(C)cnn12)C(F)(F)F (stereo not drawn) [Example 15] | 0 (0) | 0 (0) | 0 (0) | 0 (0) | 0 (0) | 3 (30-44) | 0 | 0 | 3 | 2 (15-29) | 4 (45-59) | 6 (75-89) | 0 (0) | 0 (0) | 0 (0) | 0 | 0 | 0 | 0 | 0 | PYTHU inhibition of mycelial growth rating (Pythium ultimum; 25 ppm): 0; TEB disease control rating (Alternara solani; 12.5 ppm spray): 0 (0); TEB disease control rating (Alternara solani; 50 ppm spray): 0 (0); TEB disease control rating (Alternara solani; 200 ppm spray): 0 (0); PB disease control rating (Botrytis cinera; 12.5 ppm spray): 0 (0); PB disease control rating (Botrytis cinera; 50 ppm spray): 0 (0); PB disease control rating (Botrytis cinera; 200 ppm spray): 2 (15-29) |
